Source: the NIST ThermoML archive (doi:10.1021/acs.jced.6b00867)

Assays:
[1] = refractive index (Na D-line) (dimensionless); conditions: 101 kPa, Liquid, Standard Abbe refractometry
[2] = refractive index (Na D-line) (dimensionless); xn = mol fraction of the nth substance listed; conditions: 101 kPa, Liquid, Standard Abbe refractometry
[3] = 352.2 K; Liquid; Ebulliometric method (Recirculating still)

CC1CCC(=O)O1 (stereo not drawn) [γ-valerolactone]
[1]
Conditions | refractive index
293.2 K | 1.4339
298.2 K | 1.4316

CC1CCC(=O)O1 (stereo not drawn) [γ-valerolactone] + O=CO
refractive index, [2]
Conditions | 293.2 K | 298.2 K
x2 = 0 | 1.4339 | 1.4316
x2 = 0.0697 | 1.4314 | 1.4292
x2 = 0.1233 | 1.4295 | 1.4272
x2 = 0.2013 | 1.4265 | 1.4245
x2 = 0.3394 | 1.421 | 1.4191
x2 = 0.4898 | 1.4138 | 1.4118
x2 = 0.593 | 1.4078 | 1.4058
x2 = 0.6258 | 1.4056 | 1.4036
x2 = 0.6744 | 1.4021 | 1.4002
x2 = 0.7799 | 1.3941 | 1.3921
x2 = 0.8539 | 1.3875 | 1.3856
x2 = 0.8902 | 1.3839 | 1.3821
x2 = 0.9828 | 1.3739 | 1.3719

O=CO [formic acid]
[1]
Conditions | refractive index
293.2 K | 1.3714
298.2 K | 1.3699

Conditions | vapor or sublimation pressure [kPa]
[3] | 51

O=CO [formic acid] + CC1CCC(=O)O1
[2], x1 = 1
Conditions | refractive index
293.2 K | 1.3714
298.2 K | 1.3699
